How the values were obtained:
Type in all cases: in vivo
[1] = tested on: ducksalad (Heteranthera limosa); test: Test B flooded paddy test, visual plant response rating 0-100; settings: 250 g ai/ha, Flood, applied to paddy water, evaluated after 13 days
Outline: (§1)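 Plants were grown to the 2-leaf stage, then pots were flooded to 3 cm above the soil and compound was applied directly to the paddy water, with that depth kept throughout.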

[2] = tested on: sedge, umbrella (small-flower umbrella sedge, Cyperus difformis); test: as above; settings: 250 g ai/ha, Flood, applied to paddy water, evaluated after 13 days
Outline: as §1

rice (Oryza sativa) = test: as above; settings: 250 g ai/ha, Flood, applied to paddy water, evaluated after 13 days
Outline: as §1

[3] = tested on: barnyardgrass (Echinochloa crusgalli); test: as above; settings: 250 g ai/ha, Flood, applied to paddy water, evaluated after 13 days
Outline: as §1

[4] = tested on: ryegrass, Italian (italian ryegrass, Lolium multiflorum); test: Test A preemergence soil spray, visual injury rating 0-100; settings: 10 days
Outline: (§2)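 Visual injury, scored 0-100 (100 = complete control) against untreated plants, 10 days after greenhouse treatment. Test chemicals in surfactant-containing non-phytotoxic solvent were applied in loam soil and sand, as a preemergence soil spray on seeds or postemergence to plants at the one- to two-leaf stage.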

[5] = tested on: blackgrass (Alopecurus myosuroides); test: as above; settings: 10 days
Outline: as §2

[6] = tested on: barnyardgrass (Echinochloa crus-galli); test: as above; settings: 10 days
Outline: as §2

kochia (Bassia scoparia) [7] = test: as above; settings: 10 days
Outline: as §2

soybean (Glycine max) [8] = test: as above; settings: 10 days
Outline: as §2

[9] = tested on: palmer (palmer amaranth, palmer pigweed, Amaranthus palmeri); test: as above; settings: 10 days
Outline: as §2

[10] = tested on: green foxtail (Setaria viridis); test: as above; settings: 10 days
Outline: as §2

corn (Zea mays) [11] = test: as above; settings: 10 days
Outline: as §2

[12] = tested on: wheat (Triticum aestivum); test: as above; settings: 10 days
Outline: as §2

[13] = tested on: oat, wild (wild oat, Avena fatua); test: as above; settings: 10 days
Outline: as §2

[14] = tested on: ragweed (common ragweed, Ambrosia artemisiifolia); test: as above; settings: 10 days
Outline: as §2

[15] = tested on: horseweed (Erigeron canadensis); test: Test A postemergence application, visual injury rating 0-100
Outline: as §2

[16] = tested on: ryegrass, Italian (italian ryegrass, Lolium multiflorum); test: as above
Outline: as §2

[17] = tested on: blackgrass (Alopecurus myosuroides); test: as above
Outline: as §2

[18] = tested on: barnyardgrass (Echinochloa crus-galli); test: as above
Outline: as §2

kochia (Bassia scoparia) [19] = test: as above
Outline: as §2

soybean (Glycine max) [20] = test: as above
Outline: as §2

[21] = tested on: palmer (palmer amaranth, palmer pigweed, Amaranthus palmeri); test: as above
Outline: as §2

[22] = tested on: green foxtail (Setaria viridis); test: as above
Outline: as §2

corn (Zea mays) [23] = test: as above
Outline: as §2

[24] = tested on: wheat (Triticum aestivum); test: as above
Outline: as §2

[25] = tested on: oat, wild (wild oat, Avena fatua); test: as above
Outline: as §2

[26] = tested on: ragweed (common ragweed, Ambrosia artemisiifolia); test: as above
Outline: as §2

[27] = tested on: galium (catchweed bedstraw, Galium aparine); test: as above; settings: Postemergence, 16 g ai/ha, greenhouse 10 days; 0 no effect, 100 complete control
Outline: as §2

[28] = 62 g ai/ha, 0 = no effect, 100 = complete control
[29] = 62 g ai/ha, postemergence, 10 days, 0 = no effect, 100 = complete control
[30] = Postemergence, 16 g ai/ha, greenhouse 10 days, 0 no effect, 100 complete control

CC1(C(=O)NC2CC=C(C(=O)OCC(F)F)C2)CN(c2cc(F)cc(F)c2)C(=O)O1 (stereo not drawn) [Compound 151]
Plant response rating, Ducksalad (0 to 100 scale, 0 is no effect and 100 is complete control) [1]: 0 | Plant response rating, Sedge, Umbrella (0 to 100 scale, 0 is no effect and 100 is complete control) [2]: 0 | Plant response rating, Rice (0 to 100 scale, 0 is no effect and 100 is complete control) (rice (Oryza sativa)): 0 | Plant response rating, Barnyardgrass (0 to 100 scale, 0 is no effect and 100 is complete control) [3]: 0 | Ryegrass, Italian plant response rating ([4]; 16 g ai/ha, 0 to 100 scale): 0 | Ryegrass, Italian plant response rating (0-100) [4, 28]: 0 | Blackgrass plant response rating ([5]; 16 g ai/ha, 0 to 100 scale): 0 | Blackgrass plant response rating (0-100) [5, 28]: 0 | Barnyardgrass plant response rating ([6]; 16 g ai/ha, 0 to 100 scale): 0 | Barnyardgrass plant response rating (0-100) [6, 28]: 0 | Kochia plant response rating (kochia (Bassia scoparia) [7]; 16 g ai/ha, 0 to 100 scale): 0 | Kochia plant response rating (0-100) (kochia (Bassia scoparia) [7]; [28]): 0 | Soybean plant response rating (soybean (Glycine max) [8]; 16 g ai/ha, 0 to 100 scale): 0 | Soybean plant response rating (0-100) (soybean (Glycine max) [8]; [28]): 0 | Pigweed, Palmer plant response rating ([9]; 16 g ai/ha, 0 to 100 scale): 0 | Pigweed, Palmer plant response rating (0-100) [9, 28]: 0 | Foxtail, Green plant response rating ([10]; 16 g ai/ha, 0 to 100 scale): 0 | Foxtail, Green plant response rating (0-100) [10, 28]: 0 | Corn plant response rating (corn (Zea mays) [11]; 16 g ai/ha, 0 to 100 scale): 0 | Corn plant response rating (0-100) (corn (Zea mays) [11]; [28]): 0 | Wheat plant response rating ([12]; 16 g ai/ha, 0 to 100 scale): 0 | Wheat plant response rating (0-100) [12, 28]: 0 | Oat, Wild plant response rating ([13]; 16 g ai/ha, 0 to 100 scale): 0 | Oat, Wild plant response rating (0-100) [13, 28]: 0 | Ragweed plant response rating ([14]; 16 g ai/ha, 0 to 100 scale): 0 | Ragweed plant response rating (0-100) [14, 28]: 0 | Horseweed plant response rating (0-100) [15, 29]: 0 | Horseweed plant response rating (0 to 100 scale) [15, 30]: 0 | Ryegrass, Italian plant response rating (0-100) [16, 29]: 0 | Ryegrass, Italian plant response rating (0 to 100 scale) [16, 30]: 0 | Blackgrass plant response rating (0-100) [17, 29]: 0 | Blackgrass plant response rating (0 to 100 scale) [17, 30]: 0 | Barnyardgrass plant response rating (0-100) [18, 29]: 20 | Barnyardgrass plant response rating (0 to 100 scale) [18, 30]: 0 | Kochia plant response rating (0-100) (kochia (Bassia scoparia) [19]; [29]): 0 | Kochia plant response rating (0 to 100 scale) (kochia (Bassia scoparia) [19]; [30]): 0 | Soybean plant response rating (0-100) (soybean (Glycine max) [20]; [29]): 0 | Soybean plant response rating (0 to 100 scale) (soybean (Glycine max) [20]; [30]): 0 | Pigweed, Palmer plant response rating (0-100) [21, 29]: 0 | Pigweed, Palmer plant response rating (0 to 100 scale) [21, 30]: 0 | Foxtail, Green plant response rating (0-100) [22, 29]: 0 | Foxtail, Green plant response rating (0 to 100 scale) [22, 30]: 0 | Corn plant response rating (0-100) (corn (Zea mays) [23]; [29]): 0 | Corn plant response rating (0 to 100 scale) (corn (Zea mays) [23]; [30]): 0 | Wheat plant response rating (0-100) [24, 29]: 0 | Wheat plant response rating (0 to 100 scale) [24, 30]: 0 | Oat, Wild plant response rating (0-100) [25, 29]: 0 | Oat, Wild plant response rating (0 to 100 scale) [25, 30]: 0 | Ragweed plant response rating (0-100) [26, 29]: 0 | Ragweed plant response rating (0 to 100 scale) [26, 30]: 0 | Galium plant response rating (0 to 100 scale) [27]: 0

From patent US20260285850A1, “SUBSTITUTED OXAZOLIDINONES AND IMIDAZOLINONES AS HERBICIDES” (FMC CORPORATION, priority 2023, published 2026)
